Measurements reported in PubChem BioAssay AID2060506 (Molecular Pharmacology Branch, DTP, NCI, 2025).

Tested on: 598228-144-R-J1-PDC complex spheroid viability
Experiment: Anticancer human tumor 598228-144-R-J1-PDC patient-derived serous endometrial adenocarcinoma cell line growth inhibition [GQUAD]
Settings: for IC50: curve of first compound; for viability, T/C: stronger effect = lower value
Source text: DNA G-quadruplex Stabilizer Agents in Combinations in Complex Spheroids
A high-throughput screen of multi-cell type tumor spheroids was designed to identify active combinations of DNA G-quadruplex stabilizer agents and targeted small molecules. Complex spheroids include a stromal component modeled by human endothelial cells (HUVEC) and fibroblasts modeled by human mesenchymal stem cells (MSCs). The concentration ranges selected for each drug and investigational agent were based upon clinically achievable concentrations if the clinical Cmax of the agent was known.
Compounds. The drugs and investigational agents: pidnarulex (CX-5461; NSC782164), APTO-253 (NSC789042), BRACO-19 (NSC847499), peposertib (NSC802822), ceralasertib (NSC780249), elimusertib (NSC800525), camonsertib (NSC841442), AZD-1390 (NSC803789), olaparib (NSC753686), talazoparib (NSC767125), ART-558 (NSC835418), sotorasib (NSC818433), MRTX-1133 (NSC836407), SN-38 (NSC673596), topotecan (NSC609699), etoposide (NSC141540), doxorubicin (NSC123127), gemcitabine (NSC613327), 5-fluorouracil (NSC19893), paclitaxel (NSC125973), vemurafenib (NSC761431), panobinostat (NSC761190), R-306465 (JNJ-16241199; NSC773264), adavosertib (NSC754352), TP-3654 (NSC805149), carboplatin (NSC241240), KSQ-4279 (NSC840948), and staurosporine (NSC755774) were obtained from the National Cancer Institute (NCI) Developmental Therapeutics Program Chemical Repository (34). The FDA-approved anticancer drug set is available from the NCI Developmental Therapeutics Program. […] The stock solutions were prepared in dimethyl sulfoxide (DMSO, Sigma-Aldrich, St. Louis, MO, cat. D2650) at 800-fold the tested concentration and stored at -70 degrees C prior to their use. All drugs and investigational agents were tested over a range starting from a high concentration at or near the clinical Cmax and decreasing in half-log increments. If the clinical Cmax for an agent had not been determined, the highest concentration tested was 10 microM.
2.3 Cell Culture. All cells were maintained in an incubator at 37 degrees C and 5% CO2 with 95% humidity. The PDC lines were cultured according to standard operating procedures established by the NCI PDMR. All PDCs were thawed and cultured in Matrigel-coated flasks prepared with a working solution of 1X Ham's F-12 nutrient mix, without supplementation (Invitrogen, cat. 11765054), 100 U/mL penicillin-streptomycin (Invitrogen, cat. 15140122), and 2.5% Matrigel (Corning Inc., cat. 354248) for the first three passages. The 857933-349-R-J2-PDC line was cultured in 6C/Colon 1B media, which includes advanced DMEM/F-12 (Thermo Fisher Scientific, cat. 12634028), 10 mM HEPES (Thermo Fisher Scientific, cat. 15630080), 1X GlutaMAX supplement (Thermo Fisher Scientific, cat. 35050061), 0.1 mg/mL primocin (InvivoGen, cat. ant-pm-2), 10% defined fetal bovine serum, heat inactivated (HyClone Laboratories Inc., cat. SH30070.03HI), 50% L-WRN conditioned media (ATCC, cat. CRL-3276), 1.25 mM N-Acetyl-L-cysteine (Sigma-Aldrich, cat. A9165), 10 mM nicotinamide (Sigma-Aldrich, cat. N0636), 1X B-27 supplement (Thermo Fisher Scientific, cat. 17504044), 1X N-2 supplement (Thermo Fisher Scientific, cat. 17502048), 10 microM Y-27632 dihydrochloride (Tocris Bioscience, cat. 1254), and 50 ng/mL human EGF recombinant protein (Thermo Fisher Scientific, cat. PHG0311). The 485176-168-R4-J1-PDC line was cultured in Panc media, which includes all 6C/Colon 1B media components plus 100 ng/mL human FGF-10 (Thermo Fisher Scientific, cat. 100-26), 500 nM SB-431542 (Selleckchem, cat. S1067), and gastrin (Tocris, cat. 3006).
[…]

[1] = second compound 0.0316 µM, first compound 0.0316 µM
[2] = second compound 0.0316 µM, first compound 0.1 µM
[3] = second compound 0.0316 µM, first compound 0.316 µM
[4] = second compound 0.0316 µM, first compound 1 µM
[5] = second compound 0.0316 µM, first compound 3.16 µM
[6] = second compound 0.0316 µM, first compound 10 µM
[7] = second compound 0.1 µM, first compound 0.0316 µM
[8] = second compound 0.1 µM, first compound 0.1 µM
[9] = second compound 0.1 µM, first compound 0.316 µM
[10] = second compound 0.1 µM, first compound 1 µM
[11] = second compound 0.1 µM, first compound 3.16 µM
[12] = second compound 0.1 µM, first compound 10 µM
[13] = second compound 0.316 µM, first compound 0.0316 µM
[14] = second compound 0.316 µM, first compound 0.1 µM
[15] = second compound 0.316 µM, first compound 0.316 µM
[16] = second compound 0.316 µM, first compound 1 µM
[17] = second compound 0.316 µM, first compound 3.16 µM
[18] = second compound 0.316 µM, first compound 10 µM
[19] = second compound 1 µM, first compound 0.0316 µM
[20] = second compound 1 µM, first compound 0.1 µM
[21] = second compound 1 µM, first compound 0.316 µM
[22] = second compound 1 µM, first compound 1 µM
[23] = second compound 1 µM, first compound 3.16 µM
[24] = second compound 1 µM, first compound 10 µM
[25] = second compound 3.16 µM, first compound 0.0316 µM
[26] = second compound 3.16 µM, first compound 0.1 µM
[27] = second compound 3.16 µM, first compound 0.316 µM
[28] = second compound 3.16 µM, first compound 1 µM
[29] = second compound 3.16 µM, first compound 3.16 µM
[30] = second compound 3.16 µM, first compound 10 µM
[31] = second compound 10 µM, first compound 0.0316 µM
[32] = second compound 10 µM, first compound 0.1 µM
[33] = second compound 10 µM, first compound 0.316 µM
[34] = second compound 10 µM, first compound 1 µM
[35] = second compound 10 µM, first compound 3.16 µM
[36] = second compound 10 µM, first compound 10 µM
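Also: spheroids exposed to the agents for one week before reading.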
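For viability, T/C in this document: percent of vehicle DMSO control viability so 100% = untreated growth.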

CC1COCCN1c1cc(C2(S(C)(=N)=O)CC2)nc(-c2ccnc3[nH]ccc23)n1 (stereo unspecified) + Cc1[nH]c2ccc(F)cc2c1-c1nc2c3cccnc3c3ncccc3c2[nH]1
IC50 (second compound 0.0316 µM): > 10 µM | IC50 (second compound 0.1 µM): 5.23 µM | IC50 (second compound 0.316 µM): 0.914 µM | IC50 (second compound 1 µM): 0.551 µM | IC50 (second compound 3.16 µM): < 0.0316 µM | IC50 (second compound 10 µM): 0.629 µM | viability, T/C [1]: 114% | viability, T/C [2]: 108% | viability, T/C [3]: 89.2% | viability, T/C [4]: 69.9% | viability, T/C [5]: 73% | viability, T/C [6]: 50% | viability, T/C [7]: 106% | viability, T/C [8]: 100% | viability, T/C [9]: 97.7% | viability, T/C [10]: 87.1% | viability, T/C [11]: 56.9% | viability, T/C [12]: 40.5% | viability, T/C [13]: 97.3% | viability, T/C [14]: 94.4% | viability, T/C [15]: 69% | viability, T/C [16]: 47% | viability, T/C [17]: 52.9% | viability, T/C [18]: 43.3% | viability, T/C [19]: 58% | viability, T/C [20]: 59.7% | viability, T/C [21]: 58.9% | viability, T/C [22]: 40.5% | viability, T/C [23]: 45.1% | viability, T/C [24]: 34.5% | viability, T/C [25]: 36.9% | viability, T/C [26]: 42.2% | viability, T/C [27]: 39.2% | viability, T/C [28]: 36.8% | viability, T/C [29]: 39.7% | viability, T/C [30]: 35.6% | viability, T/C [31]: 60.3% | viability, T/C [32]: 53.8% | viability, T/C [33]: 59.4% | viability, T/C [34]: 43.1% | viability, T/C [35]: 44.6% | viability, T/C [36]: 41.5%

COc1cc(C2c3cc4c(cc3C(OC3OC5COC(C)OC5C(O)C3O)C3COC(=O)C23)OCO4)cc(OC)c1O (stereo unspecified) + Cc1[nH]c2ccc(F)cc2c1-c1nc2c3cccnc3c3ncccc3c2[nH]1
IC50 (second compound 0.0316 µM): > 10 µM | IC50 (second compound 0.1 µM): > 10 µM | IC50 (second compound 0.316 µM): > 10 µM | IC50 (second compound 1 µM): 4.15 µM | IC50 (second compound 3.16 µM): < 0.0316 µM | IC50 (second compound 10 µM): 4.49 µM | viability, T/C [1]: 91.8% | viability, T/C [2]: 85.6% | viability, T/C [3]: 87% | viability, T/C [4]: 71% | viability, T/C [5]: 60.4% | viability, T/C [6]: 51.3% | viability, T/C [7]: 92.9% | viability, T/C [8]: 77.5% | viability, T/C [9]: 66.2% | viability, T/C [10]: 71.8% | viability, T/C [11]: 68.7% | viability, T/C [12]: 48.6% | viability, T/C [13]: 119% | viability, T/C [14]: 72% | viability, T/C [15]: 76.7% | viability, T/C [16]: 66% | viability, T/C [17]: 66% | viability, T/C [18]: 47.6% | viability, T/C [19]: 62.6% | viability, T/C [20]: 59.5% | viability, T/C [21]: 58.5% | viability, T/C [22]: 44.7% | viability, T/C [23]: 62% | viability, T/C [24]: 43.1% | viability, T/C [25]: 43.2% | viability, T/C [26]: 42% | viability, T/C [27]: 39.3% | viability, T/C [28]: 46.2% | viability, T/C [29]: 38.2% | viability, T/C [30]: 43.5% | viability, T/C [31]: 54.6% | viability, T/C [32]: 62.9% | viability, T/C [33]: 55.7% | viability, T/C [34]: 47.9% | viability, T/C [35]: 61.9% | viability, T/C [36]: 34.9%

CC(C)n1c(=O)n(C)c2cnc3cc(F)c(-c4ccc(OCCCN5CCCCC5)nc4)cc3c21 + Cc1cnc(CNC(=O)c2c(=O)c3ccc(N4CCCN(C)CC4)nc3n3c2sc2ccccc23)cn1
IC50 (second compound 0.0316 µM): 8.28 µM | IC50 (second compound 0.1 µM): 0.793 µM | IC50 (second compound 0.316 µM): 3.55 µM | IC50 (second compound 1 µM): 2.62 µM | IC50 (second compound 3.16 µM): < 0.0316 µM | IC50 (second compound 10 µM): < 0.0316 µM | viability, T/C [1]: 58.2% | viability, T/C [2]: 78.2% | viability, T/C [3]: 77.8% | viability, T/C [4]: 63.1% | viability, T/C [5]: 62.8% | viability, T/C [6]: 47.5% | viability, T/C [7]: 70.2% | viability, T/C [8]: 57.9% | viability, T/C [9]: 53.4% | viability, T/C [10]: 44.3% | viability, T/C [11]: 61.3% | viability, T/C [12]: 36.8% | viability, T/C [13]: 52.1% | viability, T/C [14]: 50.3% | viability, T/C [15]: 55.1% | viability, T/C [16]: 48.8% | viability, T/C [17]: 52.1% | viability, T/C [18]: 36% | viability, T/C [19]: 53.2% | viability, T/C [20]: 59.2% | viability, T/C [21]: 59.6% | viability, T/C [22]: 56.5% | viability, T/C [23]: 47.5% | viability, T/C [24]: 28.1% | viability, T/C [25]: 50.4% | viability, T/C [26]: 46% | viability, T/C [27]: 48.3% | viability, T/C [28]: 50.5% | viability, T/C [29]: 38.1% | viability, T/C [30]: 3.5% | viability, T/C [31]: 40.7% | viability, T/C [32]: 36.6% | viability, T/C [33]: 39.1% | viability, T/C [34]: 29.9% | viability, T/C [35]: 25% | viability, T/C [36]: 0.34%
